The values that follow come from patent US20250011352A1, “SOLID FORMS” (priority 2023, published 2025).

Series [1] is described as follows: Dynamic Vapor Sorption (DVS) hygroscopicity. It is filed as physicochemical. Conditions: from 0 to 90% RH at 25° C. The method, then:
Dynamic Vapor Sorption (DVS) was used to study hygroscopicity on Model Q5000 SA (TA Instruments, New Castle, DE). A sample (1-10 mg) was placed in an aluminum pan and loaded on the sample side of the twin pan balance. The water sorption and desorption were studied as a function of relative humidity (RH) at 25° C. in 10% RH increments from 0% RH to 90% RH and then back to 0%. […] Data analysis was performed using Universal Analysis 2000 Version 4.7A (TA Instruments, New Castle, DE).

Series [2] is described as follows: Atropisomer interconversion detected by 19F-NMR in deuterated DMSO. It is filed as physicochemical. Particulars: deuterated DMSO solution, deuterated DMSO at 25° C. The method, then:
Compound 1 has two restricted rotational axes, resulting in 4 atropisomers (see FIG. 1) that may be detected by ^19F-NMR.
^19F Nuclear Magnetic Resonance spectra were collected on a Varian 400-MR 400 MHz instrument with 7620AS sample changer. Some of the parameters were adjusted as follows: number of scans: 1; spin: 0 (off); steady state scans: 0 (off). Samples were prepared as a solution of 20 mg in 0.75 mL of dimethyl sulfoxide-d6. The time from solvent addition to end of data acquisition should be ≤5 minutes. Off-line analysis was conducted using MNova software.

SMILES strings stand for the structures. Structures can show the parent of a compound that is named as a salt. Where two headings read alike, the source gives them in different places.

`Cc1cc(CC(=O)O)c(C(C)(C)CC(=O)N(c2nn(CC(F)(F)F)c3c(-c4ccc(C#CC(C)(C)S(C)(=O)=O)nc4[C@H](Cc4cc(F)cc(F)c4)NC(=O)Cn4nc(C(F)(F)F)c5c4C(F)(F)[C@@H]4C[C@H]54)ccc(Cl)c23)S(C)(=O)=O)c(OP(=O)(O)O)c1` [Compound 1 maleate]: the “water uptake (DVS)” value in series [1] was “about 2.5%”. Same read-out and setting: the result for `Cc1cc(CC(=O)O)c(C(C)(C)CC(=O)N(c2nn(CC(F)(F)F)c3c(-c4ccc(C#CC(C)(C)S(C)(=O)=O)nc4[C@H](Cc4cc(F)cc(F)c4)NC(=O)Cn4nc(C(F)(F)F)c5c4C(F)(F)[C@@H]4C[C@H]54)ccc(Cl)c23)S(C)(=O)=O)c(OP(=O)(O)O)c1` [Compound 1 succinate] reads “about 1.7%”. One may read the half-life as how long it takes for the measured level to halve. As for `Cc1cc(CC(=O)O)c(C(C)(C)CC(=O)N(c2nn(CC(F)(F)F)c3c(-c4ccc(C#CC(C)(C)S(C)(=O)=O)nc4[C@H](Cc4cc(F)cc(F)c4)NC(=O)Cn4nc(C(F)(F)F)c5c4C(F)(F)[C@@H]4C[C@H]54)ccc(Cl)c23)S(C)(=O)=O)c(OP(=O)(O)O)c1` [Compound 1, 2-(2-(4-(N-(4-chloro-7-(2-((S)-1-(2-((3bS,4aR)-5,5-difluoro-3-(trifluoromethyl)-3b,4,4a,5-tetrahydro-1H-cyclopropa[3,4]cyclopenta[1,2-c]pyrazol-1-yl)acetamido)-2-(3,5-difluorophenyl)ethyl)-6-(3-methyl-3-(methylsulfonyl)but-1-yn-1-yl)pyridin-3-yl)-1-(2,2,2-trifluoroethyl)-1H-indazol-3-yl)methylsulfonamido)-2-methyl-4-oxobutan-2-yl)-5-methyl-3-(phosphonooxy)phenyl)acetic acid], the half-life at 26.7 mg/mL in series [2] (read-out: half-life of conversion from the major to the minor atropisomer for the biaryl rotation (converted)) was ~71.6 h; in series [2] (read-out: half-life of interconversion at the 2nd rotational axis) it was ~0.117 h. On to `Cc1cc(CC(=O)O)c(C(C)(C)CC(=O)N(c2nn(CC(F)(F)F)c3c(-c4ccc(C#CC(C)(C)S(C)(=O)=O)nc4[C@H](Cc4cc(F)cc(F)c4)NC(=O)Cn4nc(C(F)(F)F)c5c4C(F)(F)[C@@H]4C[C@H]54)ccc(Cl)c23)S(C)(=O)=O)c(OP(=O)(O)O)c1` [Compound 1, Material A], for which the “water uptake (DVS)” value in series [1] is listed as “about 4.6%”. In the case of `Cc1cc(CC(=O)O)c(C(C)(C)CC(=O)N(c2nn(CC(F)(F)F)c3c(-c4ccc(C#CC(C)(C)S(C)(=O)=O)nc4[C@H](Cc4cc(F)cc(F)c4)NC(=O)Cn4nc(C(F)(F)F)c5c4C(F)(F)[C@@H]4C[C@H]54)ccc(Cl)c23)S(C)(=O)=O)c(OP(=O)(O)O)c1` [Compound 1, crystalline Form III], the “water uptake (DVS)” value in series [1] was “about 1.6%”. On the same count and under the same terms, the entry for `Cc1cc(CC(=O)O)c(C(C)(C)CC(=O)N(c2nn(CC(F)(F)F)c3c(-c4ccc(C#CC(C)(C)S(C)(=O)=O)nc4[C@H](Cc4cc(F)cc(F)c4)NC(=O)Cn4nc(C(F)(F)F)c5c4C(F)(F)[C@@H]4C[C@H]54)ccc(Cl)c23)S(C)(=O)=O)c(OP(=O)(O)O)c1` [Compound 1, crystalline Form II] is “about 1%”; for `Cc1cc(CC(=O)O)c(C(C)(C)CC(=O)N(c2nn(CC(F)(F)F)c3c(-c4ccc(C#CC(C)(C)S(C)(=O)=O)nc4[C@H](Cc4cc(F)cc(F)c4)NC(=O)Cn4nc(C(F)(F)F)c5c4C(F)(F)[C@@H]4C[C@H]54)ccc(Cl)c23)S(C)(=O)=O)c(OP(=O)(O)O)c1` [Compound 1, crystalline Form I] it is “about 4%”. On the same count and under the same terms, the entry for `Cc1cc(CC(=O)OC(C)(C)C)c(C(C)(C)CC(=O)N(c2nn(CC(F)(F)F)c3c(-c4ccc(C#CC(C)(C)S(C)(=O)=O)nc4[C@H](Cc4cc(F)cc(F)c4)NC(=O)Cn4nc(C(F)(F)F)c5c4C(F)(F)[C@@H]4C[C@H]54)ccc(Cl)c23)S(C)(=O)=O)c(OP(=O)(OC(C)(C)C)OC(C)(C)C)c1` [Compound 2, crystalline Form I] is “about 2.7%”.
